Reference: patent US10246456B2, “IRAK4 inhibiting agents” (BIOGEN MA INC., priority 2014, dated 2019)

Experiments:
[1] = target: IRAK4 (Homo sapiens (Human), UniProt Q9NWZ3); test: IRAK-4 AlphaScreen biochemical kinase assay; conditions: 1 nM IRAK4, 1 mM ATP, 3.5 h at RT
Procedure, shortened: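 AlphaScreen read-out: streptavidin beads bind the biotinylated peptide and protein A beads bind the anti-phosphothreonine antibody, so energy transfer reports phosphorylation of the peptide. The kinase is human IRAK-4.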

[2] = tested on: IL-6 in A549 cells; test: Cell-based IL-6 ELISA assay in IL-1beta stimulated A549 cells; conditions: 2 ng/ml human IL-1beta overnight
Procedure, shortened: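 A549 cells (2.5×10^4/well, DMEM/10% FBS) pretreated 30 min at 37 C with compound, 10-point serial dilution from 10 uM, then stimulated overnight with 2 ng/ml human IL-1beta. Secreted IL-6 in supernatant quantified by human IL-6 ELISA.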

Chain of IRAK4 (Q9NWZ3 whole entry, species assumed): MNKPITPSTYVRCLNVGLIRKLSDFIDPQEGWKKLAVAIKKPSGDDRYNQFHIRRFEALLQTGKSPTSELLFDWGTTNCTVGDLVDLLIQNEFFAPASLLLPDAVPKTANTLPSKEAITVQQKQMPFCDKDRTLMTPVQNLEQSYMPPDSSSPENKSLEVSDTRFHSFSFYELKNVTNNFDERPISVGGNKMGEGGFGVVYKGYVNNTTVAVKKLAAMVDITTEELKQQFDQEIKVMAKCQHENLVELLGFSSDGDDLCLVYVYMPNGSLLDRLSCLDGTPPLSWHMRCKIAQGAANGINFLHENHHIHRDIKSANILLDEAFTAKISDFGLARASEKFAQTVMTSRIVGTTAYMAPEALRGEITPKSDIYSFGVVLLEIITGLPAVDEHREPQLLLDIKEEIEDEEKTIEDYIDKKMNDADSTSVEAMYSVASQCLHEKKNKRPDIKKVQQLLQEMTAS

IC50 [1]	EC50 [2]	Structure (SMILES)
100 to 1000 nM	≤ 1000 nM	NC(CO)c1cccc(-c2ccc3cnn(-c4cccc(CO)n4)c3c2)n1 (stereo not drawn) [Example 530, 2-amino-2-(6-(1-(6-(hydroxymethyl)pyridin-2-yl)-1H-indazol-6-yl)pyridin-2-yl)ethanol]
< 100 nM	≤ 1000 nM	CCC[C@H](N)c1cccc(-c2ccc3cnn(-c4nccc(C(F)(F)F)n4)c3c2)n1 [Example 531, (S)-1-(6-(1-(4-(trifluoromethyl)pyrimidin-2-yl)-1H-indazol-6-yl)pyridin-2-yl)butan-1-amine]
< 100 nM	≤ 1000 nM	CS(=O)(=O)CC(N)c1cccc(-c2ccc3cnn(-c4cccc(CO)n4)c3c2)n1 (stereo not drawn) [Example 532, (6-(6-(6-(1-amino-2-(methylsulfonyl)ethyl)pyridin-2-yl)-1H-indazol-1-yl)pyridin-2-yl)methanol]
< 100 nM	≤ 1000 nM	CC[C@H](N)c1cccc(-c2cc(C#N)c3cnn(-c4cccc(CO)n4)c3c2)n1 [Example 533, (S)-6-(6-(1-aminopropyl)pyridin-2-yl)-1-(6-(hydroxymethyl)pyridin-2-yl)-1H-indazole-4-carbonitrile]
< 100 nM	≤ 1000 nM	NC(CC1CC1)c1cccc(-c2ccc3cnn(-c4cccc(CO)n4)c3c2)n1 (stereo not drawn) [Example 535, (6-(6-(6-(1-amino-2-cyclopropylethyl)pyridin-2-yl)-1H-indazol-1-yl)pyridin-2-yl)methanol]
< 100 nM	≤ 1000 nM	Cc1cccc(-n2ncc3c(-c4cnco4)cc(-c4cccc(C(C)N)n4)cc32)n1 (stereo not drawn) [Example 536, 1-(6-(1-(6-methylpyridin-2-yl)-4-(oxazol-5-yl)-1H-indazol-6-yl)pyridin-2-yl)ethanamine]
< 100 nM	≤ 1000 nM	C[C@H](N)c1cccc(-c2cc(C#N)c3cnn(-c4cccc(CO)n4)c3c2)n1 [Example 537, (S)-6-(6-(1-aminoethyl)pyridin-2-yl)-1-(6-(hydroxymethyl)pyridin-2-yl)-1H-indazole-4-carbonitrile]
< 100 nM	≤ 1000 nM	NC(c1cccc(-c2ccc3cnn(-c4cccc(CO)n4)c3c2)n1)C1CC1 (stereo not drawn) [Example 538, (6-(6-(6-(amino(cyclopropyl)methyl)pyridin-2-yl)-1H-indazol-1-yl)pyridin-2-yl)methanol]
< 100 nM	1000 to 10000 nM	CC[C@H](N)c1cccc(-c2ccc3cnn(-c4cccc(C(F)F)n4)c3c2)n1 [Example 539, (S)-1-(6-(1-(6-(difluoromethyl)pyridin-2-yl)-1H-indazol-6-yl)pyridin-2-yl)propan-1-amine]
100 to 1000 nM	1000 to 10000 nM	C[C@H](N)c1cccc(-c2cc(C(=O)NC(C)(C)CO)c3cnn(-c4cccc(CO)n4)c3c2)n1 [Example 540, (S)-6-(6-(1-aminoethyl)pyridin-2-yl)-N-(1-hydroxy-2-methylpropan-2-yl)-1-(6-(hydroxymethyl)pyridin-2-yl)-1H-indazole-4-carboxamide]
100 to 1000 nM	1000 to 10000 nM	C[C@H](N)c1cccc(-c2ccc3cnn(-c4nccc(C(F)F)n4)c3c2)n1 [Example 541, (S)-1-(6-(1-(4-(difluoromethyl)pyrimidin-2-yl)-1H-indazol-6-yl)pyridin-2-yl)ethanamine]
< 100 nM	1000 to 10000 nM	Cc1cccc(-n2ncc3c(-c4ncco4)cc(-c4cccc(C(C)N)n4)cc32)n1 (stereo not drawn) [Example 542, 1-(6-(1-(6-methylpyridin-2-yl)-4-(oxazol-2-yl)-1H-indazol-6-yl)pyridin-2-yl)ethanamine]
< 100 nM	1000 to 10000 nM	COCC(N)c1cccc(-c2ccc3cnn(-c4cccc(CO)n4)c3c2)n1 (stereo not drawn) [Example 543, (6-(6-(6-(1-amino-2-methoxyethyl)pyridin-2-yl)-1H-indazol-1-yl)pyridin-2-yl)methanol]
< 100 nM	1000 to 10000 nM	CN(C)C(=O)C(N)c1cccc(-c2ccc3cnn(-c4cccc(CO)n4)c3c2)n1 (stereo not drawn) [Example 544, 2-amino-2-(6-(1-(6-(hydroxymethyl)pyridin-2-yl)-1H-indazol-6-yl)pyridin-2-yl)-N,N-dimethylacetamide]
< 100 nM	1000 to 10000 nM	C[C@H](N)c1cccc(-c2ccc3cnn(-c4ccc(F)c(CO)n4)c3c2)n1 [Example 545, (S)-(6-(6-(6-(1-aminoethyl)pyridin-2-yl)-1H-indazol-1-yl)-3-fluoropyridin-2-yl)methanol]
< 100 nM	1000 to 10000 nM	CCC[C@H](N)c1cccc(-c2ccc3cnn(-c4cncc(C(F)(F)F)n4)c3c2)n1 [Example 546, (S)-1-(6-(1-(6-(trifluoromethyl)pyrazin-2-yl)-1H-indazol-6-yl)pyridin-2-yl)butan-1-amine]
100 to 1000 nM	1000 to 10000 nM	CC(N)CNC(=O)c1cc(-c2cccc([C@H](C)N)n2)cc2c1cnn2-c1cccc(CO)n1 (stereo partly drawn) [Example 548, 6-(6-((S)-1-aminoethyl)pyridin-2-yl)-N-(2-aminopropyl)-1-(6-(hydroxymethyl)pyridin-2-yl)-1H-indazole-4-carboxamide]
1000 to 10000 nM	1000 to 10000 nM	CCCC(O)c1cccc(-c2ccc3cnn(-c4cccc(CO)n4)c3c2)n1 (stereo not drawn) [Example 550, 1-(6-(1-(6-(hydroxymethyl)pyridin-2-yl)-1H-indazol-6-yl)pyridin-2-yl)butan-1-ol]
